Measured values as given in patent US11274095B2, “Modulators of methyl modifying enzymes, compositions and uses thereof” (Constellation Pharmaceuticals, Inc., priority 2018, dated 2022).
pEC50, pIC50: −log10 of the molar value.

Columns and labels:
Karpas-422 cell lines = assay: Karpas-422 viability assay (Cell Titer-Glo, Day 8); type: cell-based; details: Cell Titer-Glo on Day 8
Description: Karpas-422 cell lines were obtained from DSMZ (Braunschweig, Germany) and were grown in RPMI-1640 media. All media contained 10% fetal bovine serum (FBS) and 1% penicillin/streptomycin (Invitrogen). 20K cells per well were plated onto 96 well compound coated plates. Cells were split and seeded at original plating density (based on the DMSO well counts) every 4 days into plates containing fresh EZH2 inhibitors. Relative cell numbers were assessed by Cell Titer-Glo luminescent cell viability assay (Promega) on Day 8. GraphPad Prism 5 was used for curve fitting and GI50 values were reported.

[1] = Cellular permeability in MDCK assay; type: in vitro ADME; details: dog, pH 7.4, MDCK II, with P-gp inhibitor GF120918 10 μM; for efflux ratio at 2.5 h, 2 μM: Papp(BA)/Papp(AB)
Description: Cell culture: MDCK II cells (obtained from Piet Borst at the Netherlands Cancer Institute) were seeded onto […] (PET) in 96-well BD insert systems at 2.5×10^5 cells/mL until to 4-7 days for confluent cell monolayer formation.
Experimental procedure: Test and reference compounds (nadolol, metoprolol and digoxin) were diluted with transport buffer (HBSS with 10mM Hepes, pH7.4) from stock solution to a concentration of 2 μM (<1% DMSO) and applied to the apical (A) or basolateral (B) side of the cell monolayer. Permeation of the test compounds from A to B direction or B to A direction was determined in duplicate with P-gp inhibitor (GF120918, 10 μM). Digoxin was tested at 10 μM from A to B direction or B to A direction with/without P-gp inhibitor (GF120918, 10 μM) as well, while nadolol and metoprolol were tested at 2 μM in A to B direction without P-gp inhibitor (GF120918, 10 μM) in duplicate. The plate was incubated for 2.5 hours in CO2 incubator at 37±1° C., with 5% CO2 at saturated humidity without shaking. In addition, the efflux ratio of each compound was also determined. Test and reference compounds were quantified by LC/MS/MS analysis based on the peak area ratio of analyte/IS. After transport assay, Lucifer yellow rejection assay are applied to determine the cell monolayer integrity. Buffers are removed from both apical and basolateral chambers, followed by the addition of 75 μL of 100 μM lucifer yellow in transport buffer and 250 μL transport buffer in apical and basolateral chambers, respectively. The plate is incubated for 30 minutes at 37° C. with 5% CO2 and 95% relative humidity without shaking. After 30 minutes incubation, 20 μL of lucifer yellow samples are taken from the apical sides, followed by the addition of 60 μL of Transport Buffer. And then 80 μL of lucifer yellow samples are taken from the basolateral sides. The relative fluorescence unit (RFU) of lucifer yellow is measured at 425/528 nm (excitation/emission) with a Molecular Device M2e plate reader.
Data analysis: The apparent permeability coefficient Papp (cm/s) was calculated using the equation: Papp=(dCr/dt)×Vr/(A×C0) Where dCr/dt is the cumulative concentration of compound in the receiver chamber as a function of time (μM/s); Vr is the solution volume in the receiver chamber (0.075 mL on the apical side, 0.25 mL on the basolateral side); A is the surface area for the transport, i.e. 0.0804 cm2 for the area of the monolayer; C0 is the initial concentration in the donor chamber (μM).
The efflux ratio was calculated using the equation: Efflux Ratio=Papp(BA)/Papp(AB) Percent recovery was calculated using the equation: % Recovery=100×[(Vr×Cr)+(Vd×Cd)]/(Vd×C0) Where Vd is the volume in the donor chambers (0.075 mL on the apical side, 0.25 mL on the basolateral side); Cd and Cr are the final concentrations of transport compound in donor and receiver chambers, respectively.
Percent of lucifer yellow in basolateral well is calculated using the equation:
[formula] where RFUApical and RFUBasolateral are the relative fluorescence unit values of lucifer yellow in the apical and basolateral wells, respectively; VApical and VBasolateral are the volume of apical and basolateral wells (0.075 mL and 0.25 mL), respectively. Percent lucifer yellow should be less than 2.

PRC2 containing wt EZH2 = PRC2 containing wt EZH2 (Homo sapiens (Human), UniProt Q15910); assay: EZH2 biochemical assay (IC50), 3H-SAM incorporation into biotinylated H3 peptide; details: 30 pM PRC2 with wt EZH2, 3-5 h pre-incubation
Chain of PRC2 containing wt EZH2 (Q15910 whole entry): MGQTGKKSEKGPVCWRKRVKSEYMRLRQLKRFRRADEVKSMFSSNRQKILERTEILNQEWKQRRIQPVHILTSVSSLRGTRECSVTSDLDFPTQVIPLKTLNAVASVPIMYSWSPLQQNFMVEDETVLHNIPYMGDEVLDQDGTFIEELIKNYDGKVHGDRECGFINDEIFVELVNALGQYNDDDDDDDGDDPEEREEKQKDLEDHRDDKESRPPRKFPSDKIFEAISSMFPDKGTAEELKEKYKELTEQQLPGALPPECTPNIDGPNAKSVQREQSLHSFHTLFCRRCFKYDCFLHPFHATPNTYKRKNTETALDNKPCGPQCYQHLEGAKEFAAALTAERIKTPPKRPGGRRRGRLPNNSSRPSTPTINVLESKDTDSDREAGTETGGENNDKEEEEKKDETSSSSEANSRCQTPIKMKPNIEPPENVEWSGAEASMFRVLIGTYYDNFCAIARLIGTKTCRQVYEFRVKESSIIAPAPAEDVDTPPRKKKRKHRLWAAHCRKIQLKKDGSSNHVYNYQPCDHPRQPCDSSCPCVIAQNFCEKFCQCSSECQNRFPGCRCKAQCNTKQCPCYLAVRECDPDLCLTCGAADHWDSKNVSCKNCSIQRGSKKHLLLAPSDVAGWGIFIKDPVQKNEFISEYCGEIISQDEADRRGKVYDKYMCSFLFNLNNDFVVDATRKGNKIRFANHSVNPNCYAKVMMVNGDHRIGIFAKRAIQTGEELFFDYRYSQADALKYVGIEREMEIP
Chain of PRC2 containing wt EZH2 (O75530 whole entry partner): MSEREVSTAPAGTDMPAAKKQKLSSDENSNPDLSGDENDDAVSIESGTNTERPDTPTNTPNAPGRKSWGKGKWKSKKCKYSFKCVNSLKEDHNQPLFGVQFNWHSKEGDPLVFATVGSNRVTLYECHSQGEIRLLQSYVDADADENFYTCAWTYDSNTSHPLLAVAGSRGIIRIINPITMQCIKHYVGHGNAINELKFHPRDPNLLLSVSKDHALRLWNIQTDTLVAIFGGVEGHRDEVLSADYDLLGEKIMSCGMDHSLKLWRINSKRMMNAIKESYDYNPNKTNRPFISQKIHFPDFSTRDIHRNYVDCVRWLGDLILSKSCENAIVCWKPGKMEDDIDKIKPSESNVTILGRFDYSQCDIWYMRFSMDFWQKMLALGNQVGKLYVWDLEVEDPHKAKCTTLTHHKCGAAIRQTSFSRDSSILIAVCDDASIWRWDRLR
Chain of PRC2 containing wt EZH2 (Q15022 whole entry partner): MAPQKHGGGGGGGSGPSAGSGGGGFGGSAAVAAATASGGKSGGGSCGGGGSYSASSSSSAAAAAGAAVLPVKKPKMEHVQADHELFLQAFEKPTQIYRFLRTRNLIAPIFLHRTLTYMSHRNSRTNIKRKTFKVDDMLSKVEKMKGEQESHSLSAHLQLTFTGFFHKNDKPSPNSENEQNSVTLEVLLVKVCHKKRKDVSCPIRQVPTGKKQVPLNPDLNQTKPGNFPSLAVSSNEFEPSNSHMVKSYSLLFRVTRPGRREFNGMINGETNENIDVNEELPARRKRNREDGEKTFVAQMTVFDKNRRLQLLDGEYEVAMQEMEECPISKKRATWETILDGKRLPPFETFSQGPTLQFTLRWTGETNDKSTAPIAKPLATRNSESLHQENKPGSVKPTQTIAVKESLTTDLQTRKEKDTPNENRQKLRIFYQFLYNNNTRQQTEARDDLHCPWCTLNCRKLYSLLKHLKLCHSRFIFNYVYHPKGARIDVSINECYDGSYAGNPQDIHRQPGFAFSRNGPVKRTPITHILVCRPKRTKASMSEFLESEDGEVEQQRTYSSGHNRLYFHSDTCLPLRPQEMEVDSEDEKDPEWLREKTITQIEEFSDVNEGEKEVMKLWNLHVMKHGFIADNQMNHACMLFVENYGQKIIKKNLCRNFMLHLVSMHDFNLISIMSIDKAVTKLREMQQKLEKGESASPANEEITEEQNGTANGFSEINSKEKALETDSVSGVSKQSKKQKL
Chain of PRC2 containing wt EZH2 (Q09028 whole entry partner): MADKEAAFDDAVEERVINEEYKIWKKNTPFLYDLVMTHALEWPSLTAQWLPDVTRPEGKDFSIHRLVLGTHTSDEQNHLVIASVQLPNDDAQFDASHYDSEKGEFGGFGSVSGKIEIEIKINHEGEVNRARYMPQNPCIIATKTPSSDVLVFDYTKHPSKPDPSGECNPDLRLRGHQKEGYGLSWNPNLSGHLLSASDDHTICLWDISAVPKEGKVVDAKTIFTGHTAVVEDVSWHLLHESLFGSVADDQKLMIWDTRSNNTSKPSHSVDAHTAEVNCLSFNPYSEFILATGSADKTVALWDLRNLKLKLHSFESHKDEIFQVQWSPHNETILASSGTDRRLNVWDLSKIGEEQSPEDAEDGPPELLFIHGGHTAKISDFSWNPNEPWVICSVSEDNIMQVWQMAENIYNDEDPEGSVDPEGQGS
Chain of PRC2 containing wt EZH2 (Q6ZN18 whole entry partner): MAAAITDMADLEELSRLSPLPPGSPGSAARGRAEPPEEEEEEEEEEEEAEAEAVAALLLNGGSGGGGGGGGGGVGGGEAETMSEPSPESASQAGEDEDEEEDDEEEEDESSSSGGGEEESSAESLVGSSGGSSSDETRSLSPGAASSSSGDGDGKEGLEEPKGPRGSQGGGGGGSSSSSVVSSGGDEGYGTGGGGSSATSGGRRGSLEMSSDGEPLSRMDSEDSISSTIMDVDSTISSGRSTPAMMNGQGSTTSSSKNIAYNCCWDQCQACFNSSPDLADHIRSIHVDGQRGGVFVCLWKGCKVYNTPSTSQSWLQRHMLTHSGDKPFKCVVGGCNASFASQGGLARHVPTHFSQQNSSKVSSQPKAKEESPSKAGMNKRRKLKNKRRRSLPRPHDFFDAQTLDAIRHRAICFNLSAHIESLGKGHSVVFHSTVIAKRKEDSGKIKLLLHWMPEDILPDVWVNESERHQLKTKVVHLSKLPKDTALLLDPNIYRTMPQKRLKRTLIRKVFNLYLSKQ
Description: EZH2 biochemical assay (IC50): Compound potencies were assessed through incorporation of ^3H-SAM into a biotinylated H3 peptide. Specifically, 30 pM PRC2 containing wt EZH2 (pentameric complex prepared in-house) was pre-incubated with 450 nM SAM, 450 nM ^3H-SAM, 2 μM H3K27me3 activating peptide (H2N-RKQLATKAAR(Kme3)SAPATGGVKKP-amide) and compounds (as 10 point duplicate dose response titrations in DMSO, final assay 0.8% DMSO (v/v)) for 3-5 h in 50 mM Tris (pH 8.5), 1 mM DTT, 0.07 mM Brij-35, 0.1% BSA, and 0.8% DMSO in a total volume of 12.5 μl. Reaction was initiated with biotinylated H3 substrate peptide (H2N-RKQLATKAAR(Kmel)SAPATGGVKKP-NTPEGBiot) as a 2 μM stock in 12.5 μl of buffer and allowed to react at room temperature for 18-22 h. Quenching was accomplished by addition of 20 μl of STOP solution (50 mM Tris (pH 8.5), 200 mM EDTA, 2 mM SAH). 35 μl of the quenched solution was transferred to streptavidin coated FlashPlates (PerkinElmer), incubated 1-2 h, washed, and read in a TopCount Reader (PerkinElmer). IC50s were calculated in Genedata Screener using non-linear least square four parameter fits, where the four parameters were IC50, Hill slope, pre-transitional baseline (0% INH), and post-transitional baseline (100% INH).

H3K27me3 in Hela cells = assay: H3K27me3 Alpha Hela Assay (AlphaLISA); type: cell-based
Description: H3K27me3 Alpha Hela Assay (AlphaLISA). Ten different doses of each test compound (in a series of 3-fold dilutions) were plated in duplicate 384-well tissue culture treated plates (Catalog #6007680; Perkin Elmer, Waltham, Mass.). Hela cells grown in culture were trypsinized and counted using a Countess® cell counter (Catalog #C10281; Life Technologies, Grand Island, N.Y.). Cell were diluted to 67,000 cells per mL in10% DMEM (Catalog #10569-010 Life Technologies, Grand Island, N.Y.) and 15 μL (1,000 cells) were plated into each well using the Biotek MicroFlo™ Select Dispenser (BioTek Instruments, Inc. Vermont, USA),) of the 384-well plate. Plates were incubated at 37° C./5% CO2 for 72 hrs. One of the duplicate plates was processed for HeLa assay and the other for viability. 5 μL of Cell-Histone Lysis buffer (1×) (Catalog #AL009F1 Perkin Elmer; Waltham, Mass.) per well was added to the plate processed for AlphaLISA and the plate was incubated at RT for 30 minutes on a plate shaker with low speed (Model# 4625-Q Thermo Scientific; Waltham, Mass.). Then, 10 μL per well Histone Extraction buffer (catalog #AL009F2; Perkin Elmer; Waltham, Mass.) was added and the plate further incubated at RT for 20 min on plate shaker with low speed. Next, 10 μL of 5× mix of anti-K27me3 acceptor beads plus Biotinylated anti-Histone H3 (C-ter) Antibody (diluted to 3 nM final) (Catalog #AL118 Perkin Elmer; Waltham, Mass.) was added in each well. Dilution of the acceptor beads and anti-Histone H3 was done in 1× Histone Detection buffer (Catalog #AL009F3 Perkin Elmer; Waltham, Mass.) which was produced by diluting the 10× stock provided. The plate was sealed with an aluminum plate sealer and incubated at 23° C. for 60 min. Next, 10 μL 5× solution of Streptavidin Donor beads were added (Catalog #6760002 Perkin Elmer; Waltham, Mass.) (20 μg/mL final in 1× Histone Detection Buffer), =plate was sealed with Aluminum plate sealer and incubated at 23° C. for 30 min. The plates were then read using an EnVision-Alpha Reader (model #2104 Perkin Elmer; Waltham, Mass.). […]

[2] = Homo sapiens, KARPAS-422, 192 h

Compound	GI50 (Karpas-422 cell lines; [2]) [nM]	Papp at 2.5 h, 2 μM [1] [×10⁻⁶ cm/s]	efflux ratio at 2.5 h, 2 μM [1]	pIC50 (PRC2 containing wt EZH2)	pEC50 (H3K27me3 in Hela cells; Homo sapiens, HeLa, 72 h)	pEC50 (H3K27me3 in Hela cells; 72 hrs)	GI50 (Karpas-422 cell lines) [nM]
CSc1nc(C)[nH]c(=O)c1CNC(=O)c1cc(Cl)c2c(c1C)O[C@@](C)([C@H]1CC[C@H](N(C)C)CC1)O2 [Example 5]	22	1.1	3.6	10.27	8.44		
CSc1cc(C)[nH]c(=O)c1CNC(=O)c1cc(Cl)c2c(c1C)OC(C)(C1CCC(N3CC(F)(F)C3)CC1)O2 (single isomer, unassigned) [Example 7-Enantiomer 1]				8.07			
Cc1cc(Cl)c(CNC(=O)c2cc(Cl)c3c(c2C)OC(C)(C2CCN(CC(F)(F)F)CC2)O3)c(=O)[nH]1 (single isomer, unassigned) [Example 16-Enantiomer 1, 7-chloro-N-((4-chloro-6-methyl-2-oxo-1,2-dihydropyridin-3-yl)methyl)-2,4-dimethyl-2-(1-(2,2,2-trifluoroethyl)piperidin-4-yl)benzo[d][1,3]dioxole-5-carboxamide]				9.51		7.66	
CSc1cc(C)[nH]c(=O)c1CNC(=O)c1cc(Cl)c2c(c1C)OC(C)(C1CCC(NC3(C(F)(F)F)COC3)CC1)O2 (single isomer, unassigned) [Example 6-Enantiomer 1, 7-chloro-2,4-dimethyl-N-((6-methyl-4-(methylthio)-2-oxo-1,2-dihydropyridin-3-yl)methyl)-2-(4-((3-(trifluoromethyl)oxetan-3-yl)amino)cyclohexyl)benzo[d][1,3]dioxole-5-carboxamide]				8.74		7.41	720
CSc1cc(Cl)[nH]c(=O)c1CNC(=O)c1cc(Cl)c2c(c1C)OC(C)(C1CCC(N3CC(OC(F)F)C3)CC1)O2 (single isomer, unassigned) [Example 2]	250			8.82	7.82		
Cc1cc(Cl)c(CNC(=O)c2cc(Cl)c3c(c2C)OC(C)(C2CCN(CC(F)(F)F)CC2)O3)c(=O)[nH]1 (single isomer, unassigned) [Example 16-Enantiomer 2, 7-chloro-N-((4-chloro-6-methyl-2-oxo-1,2-dihydropyridin-3-yl)methyl)-2,4-dimethyl-2-(1-(2,2,2-trifluoroethyl)piperidin-4-yl)benzo[d][1,3]dioxole-5-carboxamide]				< 8.00		< 6.52	
CSc1cc(C)[nH]c(=O)c1CNC(=O)c1cc(Cl)c2c(c1C)OC(C)(C1CCN(CC(F)(F)F)CC1)O2 (single isomer, unassigned) [Example 14-Enantiomer 2, 7-chloro-2,4-dimethyl-N-((6-methyl-4-(methylthio)-2-oxo-1,2-dihydropyridin-3-yl)methyl)-2-(1-(2,2,2-trifluoroethyl)piperidin-4-yl)benzo[d][1,3]dioxole-5-carboxamide]		13	0.56	8.15		6.68	

The remaining lines, values ahead:

GI50 (Karpas-422 cell lines; [2]) [nM]	Papp at 2.5 h, 2 μM [1] [×10⁻⁶ cm/s]	efflux ratio at 2.5 h, 2 μM [1]	pIC50 (PRC2 containing wt EZH2)	pEC50 (H3K27me3 in Hela cells; Homo sapiens, HeLa, 72 h)	pEC50 (H3K27me3 in Hela cells; 72 hrs)	GI50 (Karpas-422 cell lines) [nM]	Compound
8.6	5.3	1.3	9.85	8.89			CSc1cc(C)[nH]c(=O)c1CNC(=O)c1cc(Cl)c2c(c1C)OC(C)(C1CCC(NC3(CF)COC3)CC1)O2 (single isomer, unassigned) [Example 11 (geometric isomer 1)]
			9.74		8.77		CSc1cc(C)[nH]c(=O)c1CNC(=O)c1cc(Cl)c2c(c1C)OC(C)(C1CCC(NC3(CF)COC3)CC1)O2 (single isomer, unassigned) [Example 11 (geometric isomer 2)]
29	3.7	1.2	9.43	8.62			CSc1cc(Cl)[nH]c(=O)c1CNC(=O)c1cc(Cl)c2c(c1C)O[C@@](C)([C@H]1CC[C@H](N(C)C)CC1)O2 [Example 3, (R)-7-chloro-N-((6-chloro-4-(methylthio)-2-oxo-1,2-dihydropyridin-3-yl)methyl)-2-(trans-4-(dimethylamino)cyclohexyl)-2,4-dimethylbenzo[d][1,3]dioxole-5-carboxamide]
			10.43		8.85		CSc1cc(C)[nH]c(=O)c1CNC(=O)c1cc(Cl)c2c(c1C)OC(C)(C1CCN(CC(F)(F)F)CC1)O2 (single isomer, unassigned) [Example 14-Enantiomer 1, 7-chloro-2,4-dimethyl-N-((6-methyl-4-(methylthio)-2-oxo-1,2-dihydropyridin-3-yl)methyl)-2-(1-(2,2,2-trifluoroethyl)piperidin-4-yl)benzo[d][1,3]dioxole-5-carboxamide]
			9.85		8.38	53	CSc1cc(C)[nH]c(=O)c1CNC(=O)c1cc(Cl)c2c(c1C)OC(C)(C1CCC(NC3(C(F)(F)F)COC3)CC1)O2 (single isomer, unassigned) [Example 6-Enantiomer 2]
